According to US20260125357A1, “LACTATE ENHANCING COMPOUNDS AND USES THEREOF” (GLIAPHARM SA, priority 2022, published 2026):

Experiments:
[1] = test system: human iPSC-derived astrocytes; experiment: Uptake of 2-DG in human iPSC-derived astrocytes; assay type: cell-based; details: treated for 1.5 hours
Procedure: Astrocytes grown on 12-well plates and transfected with either scramble siRNA or GLUT1 siRNA were used. 1 day after having replaced transfection medium (DIV13), 2DG uptake was measured after treatment for 30 min with Vehicle (0.1% DMSO) or with the compound of the invention (1) to (5) (concentrations of 0.1 to 10 μM). During treatment, 1 mM 2DG was added to the medium for assessment of 2DG uptake. At the end of the stimulation, medium was removed and replaced with 150 μl NaOH 0.1M, and stored at −20° C. After thawing, cells were collected using cell scraper and heated for 40 min at 85° C. Then, 150 ul HCl 0.1M and TAE buffer 200 mM was added to each condition. 20 μl were added to a transparent 96-well plate and 2DG was quantified by addition of a reaction solution containing 50 mM TAE, 50 mM KCl, 0.02% BSA, 0.1 mM NADP, 0.2 U/ml diaphorase, 2 mM resazurin and 20 U/ml glucose-6-phosphate dehydrogenase. Concentration of 2DG in samples were calculated by comparison with standard curve of deoxy-glucose-6-phophate ranging from 0 to 1 nmoles.
Human iPSC-derived astrocytes were purchased from NCardia (NCyte Astrocytes) and were plated at a density of ˜10′000 cells/cm^2 in 96-well or 12-well plates, according to the manufacturer's instructions and using the recommended media. […] Uptake of 2-DG and release of lactate were quantified as described previously.

[2] = test system: Wild-type (WT) and GLUT1-DS transgenic mice; experiment: Grip strength test in WT and GLUT1-DS transgenic mice; assay type: in vivo, mouse; details: 10 mg/kg, after rotarod session
Text: Heterozygous transgenic mice on 129/SvJ genetic background in which glucose transporter 1 (GLUT1) has been knocked down were used (GLUT1(+/−)) (Wang et al., 2016, Human Molecular Genetics, 15(7)). GLUT1-deficiency syndrome (GLUT1-DS) is a prototypic hypometabolic diseases caused by the mutation of GLUT1 and decreased levels of glucose and lactate in the brain (Tang et al., 2019, Annals of Clinical and Translational Neurology 6(9)). Mating colonies were composed of wild-type female mice and GLUT1-DS male mice, or GLUT1-DS female mice and wild-type male mice. F1 pups were genotyped after ear punching at weaning using PCR to determine genotype. Mice of 2 to 3 months of age were used.
Motor strength was measured on the grip strength test (Bioseb) after rotarod session. Wild-type (WT) and GLUT1-DS transgenic mice were placed with 4 paws on the grid and maximal grip strength was recorded over 2 sessions with 5 minutes apart. Maximal grip strength over the 2 sessions was recorded.

[3] = test system: mice injected with streptozotocin; experiment: Morris Water Maze in streptozotocin ICV injection model of Alzheimer's disease; assay type: in vivo, mouse; details: 30 mg/kg, 1 Day after training, vs Veh
Procedure: Craniotomies are performed on isoflurane-anesthetized mice for injections of Veh or streptozotocin in cerebral ventricles (coordinates: −0.5 mm (to bregma), lateral+/−1.0 mm (to midline), ventral −2.2 mm (to dura)) (Kelliny S. et al., Molecular Neurobiology, 2021). A solution composed of Veh (0.9% NaCl) or streptozotocin (5 mg/kg) prepared in 1 μl artificial cerebrospinal fluid solution (aCSF, 20 mM citrate buffer, pH 4.2) is injected in both cerebral ventricles using Hamilton micro syringe at a constant speed of 100-200 nl/min. After injection, skin of the skull is sutured, and mice is monitored closely and receives analgesic treatment for at least 4 days. After mice had fully recovered from surgery, memory tests including Morris Water Maze (MWM), Inhibitory Avoidance (IA) and Novel Object Recognition (NOR), as described below, are performed. […]
Morris Water Maze (MWM), a well-established spatial and contextual memory test, will be used. […] A number of parameters including the latency to find the platform, time spent around the platform, path efficiency, % time spent in each quadrant is recorded, using automated tracking software (Ethovision). The type of exploration (direct, random, scan of the area) is also recorded. […]

Compound: COc1cc2ccnc(Nc3ccc(S(C)(=O)=O)cc3)c2cc1OC [Compound 2, 6,7-dimethoxy-N-(4-methylsulfonylphenyl)isoquinolin-1-amine]
- uptake of 2-DG [1]: increased uptake of 2-DG
- muscle strength (grip strength) [2]: did not lead to any difference on muscle strength
- memory in the Morris Water Maze [3]: significantly higher
